Source: patent US10604785B2 (priority 2016, dated 2020)
Residues, ends and D or L forms follow the SMILES beside them. *: point of attachment. Cbz = O=C(OCc1ccccc1)*

Tested on: Rab33b
Type: cell-based

SMILES: CC(C)C[C@@H](C=O)NC(=O)[C@H](CC(C)C)NC(=O)[C@H](CC(C)C)NC(=O)OCc1ccccc1 [MG132] (Cbz-Leu-Leu-Leu-aldehyde)
- effect on level of modified Rab33b: does not affect the level of modified Rab33b
